# Data: patent publication US12480137B2, “Plants having increased tolerance to herbicides” (BASF SE, priority 2014, dated 2025)
# Key:
# Format in all cases: in vivo, Arabidopsis thaliana
# [1] = tested on: Arabidopsis mutant line Cesa1_P1010L; experiment: Growth inhibition of Arabidopsis lines in 48-well plates, tolerance factor from IC50; conditions: growth inhibition seven to ten days after seeding
# From the text: (§1) For selection of cellulose biosynthesis inhibitor resistant plants EMS mutagenized seed populations of Arabidopsis thaliana are used. EMS mutagenized seed populations are either bought from Lehle Seeds (1102 South Industrial Blvd. Suite D, Round Rock, Texas USA) or are generated as described elsewhere (Heim D R, et. al. (1989) Plant Physiol. 90: 146-150). Causative mutations in CESA wildtype sequences (e.g. SEQ ID NO: 1 or 3) are identified as described by Scheible W R et. al. (2001, Proc. Natl. Acad. of Sci. 98: 10079-10084), McCourt et. al. (WO2013/142968) or with the use of next generation sequencing methods as described by Austin R S, et. al. (2011) Plant Journal 67: 715-725.
# (§2) Selected Arabidopsis thaliana lines were assayed for improved resistance to azines like 6-cyclopentyl-N4-(2,3,4,5,6-pentafluorophenyl)-1,3,5-triazine-2,4-diamine; 6-(1-fluoro-1-methyl-ethyl)-N4-(2,3,4,5,6-pentafluorophenyl)-1,3,5-triazine-2,4-diamine; 6-cyclohexyl-N2-(2,3,4,5,6-pentafluorophenyl)-1,3,5-triazine-2,4-diamine; 6-(2,6-difluorophenyl)-N2-(2,3,5,6-tetrafluorophenyl)-1,3,5-triazine-2,4-diamine; N2-(4-chloro-3,5,6-trifluoro-2-pyridyl)-6-(1-fluoro-1-methyl-ethyl)-1,3,5-triazine-2,4-diamine in 48-well plates. Therefore, M2 or M3 seeds are surface sterilized by stirring for 5 min in ethanol+water (70+30 by volume), rinsing one time with ethanol+water (70+30 by volume) and two times with sterile, deionized water. The seeds are resuspended in 0.1% agar dissolved in water (w/v) Four to five seeds per well are plated on solid nutrient medium consisting of half-strength murashige skoog nutrient solution, pH 5.8 (Murashige and Skoog (1962) Physiologia Plantarum 15: 473-497). Compounds are dissolved in dimethylsulfoxid (DMSO) and added to the medium prior solidification (final DMSO concentration 0.1%). Multi well plates are incubated in a growth chamber at 22° C., 75% relative humidity and 110 μmol Phot*m^−2*s^−1 with 14:10 h light:dark photoperiod. Growth inhibition is evaluated seven to ten days after seeding in comparison to wild type plants. Tolerance factors are calculated based on IC50 values of growth inhibition of transformed versus non-transformed Arabidopsis plants (Table 3).
# [2] = tested on: Arabidopsis mutant line Cesa1_G1009D; experiment: as above; conditions: growth inhibition seven to ten days after seeding
# From the text: as §1, §2
# [3] = tested on: Arabidopsis mutant line Cesa1_G1013R; experiment: as above; conditions: growth inhibition seven to ten days after seeding
# From the text: as §1, §2
# [4] = tested on: Arabidopsis mutant line Cesa3_S1040L; experiment: as above; conditions: growth inhibition seven to ten days after seeding
# From the text: as §1, §2
# [5] = tested on: Arabidopsis mutant line Cesa3_S1037F; experiment: as above; conditions: growth inhibition seven to ten days after seeding
# From the text: as §1, §2
# [6] = tested on: wildtype Arabidopsis plants; experiment: as above; conditions: growth inhibition seven to ten days after seeding
# From the text: as §1, §2
# [7] = tested on: Arabidopsis mutant line Cesa3_S983F; experiment: as above; conditions: growth inhibition seven to ten days after seeding
# From the text: as §1, §2
# A. thaliana WT L. erecta = experiment: Greenhouse phytotox, pre-emergent treatment
# Method: (§3) Additionally, M2 or M3 Arabidopsis plants are tested for improved tolerance to cellulose biosynthesis-inhibiting herbicides in greenhouse studies (e. g. with the following cellulose biosynthesis-inhibiting herbicides: 6-cyclopentyl-N4-(2,3,4,5,6-pentafluorophenyl)-1,3,5-triazine-2,4-diamine; 6-(1-fluoro-1-methyl-ethyl)-N4-(2,3,4,5,6-pentafluorophenyl)-1,3,5-triazine-2,4-diamine; N4-(4-chloro-3,5,6-trifluoro-2-pyridyl)-6-(1-fluoro-1-methyl-ethyl)-1,3,5-triazine-2,4-diamine; 6-(2,6-difluorophenyl)-N4-(2,3,5,6-tetrafluorophenyl)-1,3,5-triazine-2,4-diamine; N4-(4-bromo-2,3,5,6-tetrafluoro-phenyl)-6-(1-fluoro-1-methyl-ethyl)-1,3,5-triazine-2,4-diamine.
# [8] = tested on: Cesa3_S983F, fpx1-3 mutant line; experiment: Greenhouse phytotox, pre-emergent treatment
# Method: as §3
# [9] = tested on: Cesa1_G1013R, fpx2-1 mutant line; experiment: Greenhouse phytotox, pre-emergent treatment
# Method: as §3
# [10] = tested on: Cesa3_S1037F, fpx1-2 mutant line; experiment: Greenhouse phytotox, pre-emergent treatment
# Method: as §3
# [11] = tested on: Cesa1_G1009D, fpx2-3 mutant line; experiment: Greenhouse phytotox, pre-emergent treatment
# Method: as §3
# [12] = tested on: Cesa1_P1010L, fpx2-2 mutant line; experiment: Greenhouse phytotox, pre-emergent treatment
# Method: as §3
# [13] = tested on: Cesa3_S1040L, fpx1-1 mutant line; experiment: Greenhouse phytotox, pre-emergent treatment
# Method: as §3
Compound,Relative tolerance rate (wildtype = 1.0) [1],Relative tolerance rate (wildtype = 1.0) [2],Relative tolerance rate (wildtype = 1.0) [3],Relative tolerance rate (wildtype = 1.0) [4],Relative tolerance rate (wildtype = 1.0) [5],Relative tolerance rate (wildtype = 1.0) [6],Relative tolerance rate (wildtype = 1.0) [7],Phytotox value on a scale from 0-100 (100 is 100% damage) (A. thaliana WT L. erecta; 0.98 g ai/ha),Phytotox value on a scale from 0-100 (100 is 100% damage) (A. thaliana WT L. erecta; 3.91 g ai/ha),Phytotox value on a scale from 0-100 (100 is 100% damage) (A. thaliana WT L. erecta; 15.63 g ai/ha),Phytotox value on a scale from 0-100 (100 is 100% damage) ([8]; 0.98 g ai/ha),Phytotox value on a scale from 0-100 (100 is 100% damage) ([8]; 3.91 g ai/ha),Phytotox value on a scale from 0-100 (100 is 100% damage) ([8]; 15.63 g ai/ha),Phytotox value on a scale from 0-100 (100 is 100% damage) ([9]; 0.98 g ai/ha),Phytotox value on a scale from 0-100 (100 is 100% damage) ([9]; 3.91 g ai/ha),Phytotox value on a scale from 0-100 (100 is 100% damage) ([9]; 15.63 g ai/ha),Phytotox value on a scale from 0-100 (100 is 100% damage) ([10]; 0.98 g ai/ha),Phytotox value on a scale from 0-100 (100 is 100% damage) ([10]; 3.91 g ai/ha),Phytotox value on a scale from 0-100 (100 is 100% damage) ([10]; 15.63 g ai/ha),Phytotox value on a scale from 0-100 (100 is 100% damage) ([11]; 0.98 g ai/ha),also measured
"Nc1nc(Nc2c(F)c(F)cc(F)c2F)nc(-c2c(F)cccc2F)n1 [6-(2,6-difluorophenyl)-N2-(2,3,5,6-tetrafluorophenyl)-1,3,5-triazine-2,4-diamine]",2,1,13,13,1,1,1,30,70,90,18,35,43,15,35,28,28,65,73,65,Phytotox value on a scale from 0-100 (100 is 100% damage) (A. thaliana WT L. erecta; 62.5 g ai/ha): 100; Phytotox value on a scale from 0-100 (100 is 100% damage) ([8]; 62.5 g ai/ha): 33; Phytotox value on a scale from 0-100 (100 is 100% damage) ([9]; 62.5 g ai/ha): 40; Phytotox value on a scale from 0-100 (100 is 100% damage) ([10]; 62.5 g ai/ha): 99; Phytotox value on a scale from 0-100 (100 is 100% damage) ([11]; 3.91 g ai/ha): 38; Phytotox value on a scale from 0-100 (100 is 100% damage) ([11]; 15.63 g ai/ha): 18; Phytotox value on a scale from 0-100 (100 is 100% damage) ([11]; 62.5 g ai/ha): 95; Phytotox value on a scale from 0-100 (100 is 100% damage) ([12]; 0.98 g ai/ha): 48; Phytotox value on a scale from 0-100 (100 is 100% damage) ([12]; 3.91 g ai/ha): 35; Phytotox value on a scale from 0-100 (100 is 100% damage) ([12]; 15.63 g ai/ha): 65; Phytotox value on a scale from 0-100 (100 is 100% damage) ([12]; 62.5 g ai/ha): 98; Phytotox value on a scale from 0-100 (100 is 100% damage) ([13]; 0.98 g ai/ha): 13; Phytotox value on a scale from 0-100 (100 is 100% damage) ([13]; 3.91 g ai/ha): 8; Phytotox value on a scale from 0-100 (100 is 100% damage) ([13]; 15.63 g ai/ha): 25; Phytotox value on a scale from 0-100 (100 is 100% damage) ([13]; 62.5 g ai/ha): 28
"Nc1nc(Nc2c(F)c(F)c(F)c(F)c2F)nc(C2CCCCC2)n1 [6-cyclohexyl-N2-(2,3,4,5,6-pentafluorophenyl)-1,3,5-triazine-2,4-diamine]",1,1,4,10,1,1,1,,,,,,,,,,,,,,
"CC(C)(F)c1nc(N)nc(Nc2c(F)c(F)c(Br)c(F)c2F)n1 [N4-(4-bromo-2,3,5,6-tetrafluoro-phenyl)-6-(1-fluoro-1-methyl-ethyl)-1,3,5-triazine-2,4-diamine]",,,,,,,,35,97,100,23,25,45,10,35,73,18,33,30,35,Phytotox value on a scale from 0-100 (100 is 100% damage) (A. thaliana WT L. erecta; 0.25 g ai/ha): 8; Phytotox value on a scale from 0-100 (100 is 100% damage) ([8]; 0.25 g ai/ha): 35; Phytotox value on a scale from 0-100 (100 is 100% damage) ([9]; 0.25 g ai/ha): 10; Phytotox value on a scale from 0-100 (100 is 100% damage) ([10]; 0.25 g ai/ha): 28; Phytotox value on a scale from 0-100 (100 is 100% damage) ([11]; 0.25 g ai/ha): 50; Phytotox value on a scale from 0-100 (100 is 100% damage) ([11]; 3.91 g ai/ha): 68; Phytotox value on a scale from 0-100 (100 is 100% damage) ([11]; 15.63 g ai/ha): 99; Phytotox value on a scale from 0-100 (100 is 100% damage) ([12]; 0.25 g ai/ha): 25; Phytotox value on a scale from 0-100 (100 is 100% damage) ([12]; 0.98 g ai/ha): 25; Phytotox value on a scale from 0-100 (100 is 100% damage) ([12]; 3.91 g ai/ha): 88; Phytotox value on a scale from 0-100 (100 is 100% damage) ([12]; 15.63 g ai/ha): 99; Phytotox value on a scale from 0-100 (100 is 100% damage) ([13]; 0.25 g ai/ha): 13; Phytotox value on a scale from 0-100 (100 is 100% damage) ([13]; 0.98 g ai/ha): 5; Phytotox value on a scale from 0-100 (100 is 100% damage) ([13]; 3.91 g ai/ha): 63; Phytotox value on a scale from 0-100 (100 is 100% damage) ([13]; 15.63 g ai/ha): 93
